Laboratory results published in paper PMC9218946, “Identification of a Subtype-Selective Allosteric Inhibitor of GluN1/GluN3 NMDA Receptors” (Frontiers in Pharmacology, 2022).

Tests used:
GluN1/GluN3A receptors = GluN1/GluN3A receptors (UniProt Q05586+Q9R1M7); experiment: Whole-cell patch-clamp recording on GluN1/GluN3A Flp-in T-REx 293 stable cell lines; type: cell-based, human GluN1-1a, rat GluN3A; set-up: expressed in transfected cells
AMPA receptors = experiment: Whole-cell patch-clamp, AMPA-induced currents in acutely isolated hippocampal neurons; type: cell-based, rat; conditions: 10 μM WZB117
Protocol: Hippocampal neurons were obtained from Sprague-Dawley rats (aged P7-14). Briefly, the isolated hippocampal tissues were cut into approximately […] slices along the sagittal plane and were digested with 3 mg/ml proteinase (Sigma-Aldrich) at 32°C for 8 min. Then 1 mg/ml bovine serum albumin (Sangon Biotech) and 1 mg/ml trypsin inhibitor (Sigma-Aldrich) were used to stop the digestion. A few slices of the hippocampus were gently blown into single cells with the dissecting solution, then transferred to a dish and left to rest for 20 min before experiments. The dishes were preprocessed. Essentially, the bottom of the dish was covered with discarded cell suspension the day before the experiment and was washed and dried the next day, which prevented the neurons from sticking to the bottom too tightly. The dissecting solution contained (in mM): 82 Na2SO4, 30 K2SO4, 5 MgCl2, 1 Na pyruvate, 10 HEPES, and 20 glucose. The pH was adjusted to 7.2 using NaOH ([Xie et al., 2020]).
Whole-cell patch-clamp recordings were performed at room temperature (22–25°C) using an EPC-10 amplifier and Patch Master Software (HEKA). Pipettes were pulled from borosilicate glass capillaries (World Precision Instruments), and the resistances were 3–5 MΩ when filled with the intracellular solution. […]

GluN1/GluN2A/GluN3A = experiment: Whole-cell patch-clamp on HEK-293 cells transiently transfected with GluN1/GluN2A/GluN3A (1:1:2); type: cell-based; conditions: 30 μM WZB117; 100 μM glutamate and 100 μM glycine; mixed receptor population
Protocol: Whole-cell patch-clamp recordings were performed at room temperature (22–25°C) using an EPC-10 amplifier and Patch Master Software (HEKA). Pipettes were pulled from borosilicate glass capillaries (World Precision Instruments), and the resistances were 3–5 MΩ when filled with the intracellular solution. The extracellular solution contained (in mM): 140 NaCl, 2.8 KCl, 1 CaCl2, 10 HEPES and 20 sucrose (290–300 mOsm), pH adjusted to 7.3 using NaOH. The pipette solution contained (in mM): 115 CsF, 10 CsCl, 10 HEPES and 10 BAPTA (280–290 mOsm), pH adjusted to 7.2 using CsOH ([Grand et al., 2018]). When recording in hippocampal neurons, the extracellular solution contained (in mM): 140 NaCl, 5 KCl, 1 CaCl2, 1.25 MgCl2, 10 glucose, and 10 HEPES, and the pH was adjusted to 7.4 using NaOH, and the pipette solution contained (in mM): 140 KCl, 1 MgCl2, 10 EGTA, and 10 HEPES, and the pH was adjusted to 7.2 using KOH ([Xie et al., 2020]). Drug-containing solutions were applied through an RSC-200 Rapid Solution Changer with a 9-tube head (BioLogic Co., France), in which the cell is positioned close to the output of a capillary. […]
Supplementary Figure S3 Effects of WZB117 on currents from HEK-293 cells co-expressing GluN1/GluN2A/GluN3A subunits. […] The data of GluN1/GluN2A were analyzed from Figure 3D. […]

[1] = system: GluN1/GluN3A with mutations in the pre-M1 region of the GluN1 subunit; experiment: Whole-cell patch-clamp on transiently transfected CHO cells, GluN1 pre-M1 alanine mutants; type: cell-based
Protocol: To establish GluN1/GluN3A stable cell lines, the human GluN1-1a (GenBank: NP_015566.1) and the rat GluN3A (GenBank: NP_612555.1) genes were subcloned into the pcDNA5-FRT-To and pcDNA3.1 vectors, respectively. An EGFP tag was added to the C-terminus of GluN1 or GluN3A using a T2A linker for identification of transfected cells during transient transfection. Point mutations were introduced by site-directed mutagenesis using PrimeSTAR (Takara). The human GluN2A (GenBank: NP_000824.1) gene was subcloned into the pcDNA3.1 vector. The chimeras GluN3A^670-673 MWPL/LEPF and GluN2A^550-553 LEPF/MWPL were generated using In-Fusion HD Cloning kits (Takara). All constructs were confirmed by DNA sequencing (Beijing Genomics Institute).
The Flp-in T-Rex 293 cell lines (Invitrogen), stably expressing GluN1/GluN3A were grown in DMEM basal medium (Gibco) supplemented with 10% fetal bovine serum (FBS, Invitrogen), 15 μg/ml blasticidin S (Invitrogen), 50 μg/ml hygromycin B (Invitrogen) and 500 μg/ml G418 (Gibco). Expression in cell lines was induced with 1 μg/ml doxycycline (Invitrogen) 24–28 h prior to the experiments. Chinese hamster ovary (CHO) cells were grown in DMEM-F12 basal medium (Gibco) supplemented with 10% FBS. In the study on the action sites of WZB117, all whole-cell patch-clamp recordings were performed on CHO cells. […]

Chain of GluN1/GluN3A receptors (Q9R1M7 24-1135, other chains not shown): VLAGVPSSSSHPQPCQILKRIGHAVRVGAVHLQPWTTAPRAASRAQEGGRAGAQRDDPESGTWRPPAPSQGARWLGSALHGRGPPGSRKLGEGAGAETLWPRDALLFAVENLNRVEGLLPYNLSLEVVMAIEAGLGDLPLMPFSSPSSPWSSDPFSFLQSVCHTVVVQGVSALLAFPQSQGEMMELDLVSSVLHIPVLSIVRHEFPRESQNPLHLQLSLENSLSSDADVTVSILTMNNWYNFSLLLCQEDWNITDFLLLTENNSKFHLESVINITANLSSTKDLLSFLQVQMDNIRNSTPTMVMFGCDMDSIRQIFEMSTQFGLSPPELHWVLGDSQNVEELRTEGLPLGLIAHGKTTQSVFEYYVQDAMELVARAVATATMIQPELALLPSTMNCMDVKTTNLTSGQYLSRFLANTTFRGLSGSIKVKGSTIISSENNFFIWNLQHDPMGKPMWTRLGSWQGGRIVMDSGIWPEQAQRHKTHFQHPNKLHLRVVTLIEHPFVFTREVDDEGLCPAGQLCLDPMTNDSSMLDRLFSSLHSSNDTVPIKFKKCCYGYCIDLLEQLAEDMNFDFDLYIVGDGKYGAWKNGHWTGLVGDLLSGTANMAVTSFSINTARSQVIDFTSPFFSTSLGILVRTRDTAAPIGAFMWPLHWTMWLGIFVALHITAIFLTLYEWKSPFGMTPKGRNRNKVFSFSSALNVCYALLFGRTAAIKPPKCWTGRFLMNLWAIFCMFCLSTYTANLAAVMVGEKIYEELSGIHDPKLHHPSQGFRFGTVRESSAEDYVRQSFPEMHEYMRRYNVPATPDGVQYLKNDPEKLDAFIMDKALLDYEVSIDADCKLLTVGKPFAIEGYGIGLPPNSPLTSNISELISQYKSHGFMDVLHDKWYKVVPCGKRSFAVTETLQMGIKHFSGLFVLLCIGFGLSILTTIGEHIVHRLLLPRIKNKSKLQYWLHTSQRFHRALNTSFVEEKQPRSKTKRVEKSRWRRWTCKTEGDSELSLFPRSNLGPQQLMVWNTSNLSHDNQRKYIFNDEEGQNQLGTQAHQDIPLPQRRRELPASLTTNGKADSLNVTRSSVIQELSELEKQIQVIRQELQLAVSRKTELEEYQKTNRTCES

O=C(Oc1cccc(F)c1OC(=O)c1cccc(O)c1)c1cccc(O)c1 [WZB117, 3-fluoro-1,2-phenylene bis(3-hydroxybenzoate)]
voltage-dependence of inhibition activity (GluN1/GluN3A receptors; 3 μM WZB117, +40 mV and −60 mV): no significant change
IC50 (GluN1/GluN3A receptors; pH 6.9): 1.27 ± 0.39 µM
IC50 (GluN1/GluN3A receptors; pH 8.3): 1.09 ± 0.22 µM
effect on AMPA-induced currents (AMPA receptors): almost ineffective
I drug/I cotrol (GluN1/GluN2A/GluN3A): 0.22 ± 0.04
influence of mutations on activity [1]: none of the mutations in the pre-M1 region of the GluN1 subunit showed a detectable influence
